Paper PMC9571628 (Molecules, 2022)

Experiments:
[1] = cited from earlier work
CYP450 = settings: cited from earlier work
[2] = Stability of QC samples in rat plasma under different storage and processing conditions; assay type: physicochemical; settings: for Accuracy (RE%) / Mean ± SD concentration found: rat plasma, n = 6; for stability in rat plasma: autosampler for 6 h, room temperature for 4 h, three cycles of freezing and thawing (−80 °C to room temperature)
Procedure: The stability of QC samples in rat plasma was tested in six replicates at three concentration levels exposed to different storage and processing conditions: autosampler for 6 h after processing, room temperature for 4 h, −80 °C for 30 days, three freeze–thaw cycles (−80 °C to room temperature).

Ugt1a7 mRNA = test: qRT-PCR of Ugt1a7 mRNA in liver and intestines of rats after multiple doses; assay type: in vivo
Procedure: The qRT-PCR analysis was used to measure mRNA levels of Ugt1a7 in the liver and intestines of rats. Total RNA was isolated from frozen liver and intestine samples using the TRNzol Universal as per the manufacturer’s instructions. A Bio Tek Epoch (Bio Tek Instruments, Inc., Winooski, VT, USA) was used to quantify the concentration and purity of the total RNA based on the ratio of the absorbance between 260 and 280 nm. RNA samples of 1 μg of were converted to complementary (cDNA) using the FastKing RT Kit. The real-time PCR assays were performed using a two-step amplification method according to the manufacturer’s recommendations in a SLAN-96S Real-Time PCR system (Shanghai Hongshi Medical Technology Co., Ltd. Shanghai, China). The PCR cycling conditions were as follows: 95 °C for 15 min, followed by 40 cycles of 95 °C for 10 s and 60 °C for 32 s. The sequences of primers are listed in Table 6. β-actin was used as an internal control.

[3] = Pharmacokinetic interaction study between SOR and DAPA in rats (oral gavage, plasma by UPLC-MS/MS); settings: for AUC(0-t) / AUC(0-inf) / CL/F / Cmax / MRT last / MRT inf / Tmax / Vd/F / half-life: n = 6; for AUC(0-inf): AUC0–∞; for CL/F: CLz/F; for MRT last: MRT0-t; for MRT inf: MRT0–∞; for Vd/F: Vz/F; for half-life: t1/2z;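 as to all read-outs here: parameters derived by non-compartmental analysis of plasma concentration–time data, with analyte levels measured by UPLC-MS/MS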
Procedure: Analytes were quantified using Ultra-Performance Liquid Chromatography-Tandem Mass Spectrometry (UPLC-MS/MS) which consisted of an LC-30A ultra-performance liquid chromatography (Shimadzu, Kyoto, Japan) and Sciex Triple Quad 5500 tandem triple quadrupole mass spectrometer (AB Sciex, Framingham, MA, USA). Chromatographic separation was performed using an XSelect HSS T3 column (2.1 mm × 100 mm, 2.5 μm, Waters, Milford, MA, USA) at 40 °C by gradient elution. The mobile phase consisted of water with 0.1% formic acid and 5 mM ammonium acetate (phase A) and acetonitrile (phase B), and the gradient elution procedure was as follows: 0–0.5 min, 60–90% B; 0.5–3 min, 90% B; 3–3.1 min, 90–60% B; and 3.1–4 min, 60% B. The injection volume was 5 μL.
A volume of 25 µL plasma samples, 2.5 µL IS mixed working solution, and 150 μL methyl tertbutyl ether was added, then vortex-mixed for 1 min. The mixture was centrifuged at 12,000× g for 10 min. The organic phase was transferred to a new centrifuged tube and evaporated to dryness under a stream of nitrogen at room temperature. The dried samples were redissolved with 100 μL of 50% acetonitrile and briefly vortexed for 1 min, then 5 μL was injected into the UPLC-MS/MS for analysis.
Adult male Sprague-Dawley (SD) rats weighing 230 ± 30 g were provided by Beijing Weitong Lihua Experimental Animal Technology Co., Ltd. (Beijing, China). The license number is SCXK (Beijing) 2016–0011. All experimental procedures for this study were reviewed and approved by the Animal Ethics Committee of Hebei General Hospital (Shijiazhuang, China) (No. 2022072). The rats were adapted to the standard laboratory conditions (12 h dark–light cycle, temperature at approximately 23 ± 2 °C, relative humidity of 50 ± 10%) for a week. All the rats were given access to water freely, while the diet was prohibited for 12 h before administration.
Twenty-four healthy rats were randomly divided into four groups (n = 6 in each group). […] Blood samples were then centrifuged at 3500× g for 10 min at 4 °C, and the supernatant was transferred to another centrifuged tube, then stored in a −80 °C freezer until analysis.
DAS 2.1.1 Software (Mathematical Pharmacology Professional Committee of China, Shanghai, China) was used to calculate pharmacokinetic parameters with non-compartmental analysis. The pharmacokinetic analysis included AUC (area under the concentration–time curve), Cmax (maximum plasma concentration), Tmax (time to maximum plasma concentration), t1/2 (time required to eliminate half of plasma drug concentration), CLz/F (clearance of drug plasma volume per time unit), Vz/F (apparent volume of distribution), and MRT (mean residence time). SPSS 25.0 statistical software (SPSS Inc., Chicago, IL, USA) was used to statistically analyze the above-mentioned pharmacokinetic parameters. Statistical comparisons of the experimental and control groups were conducted using a nonparametric rank-sum test or t-test, depending on the data type; p < 0.05 was considered statistically significant.

UGT1A9 = settings: cited from earlier work
UGT1A1 = settings: cited from earlier work
[4] = design: method as in earlier work; settings: co-administration of neomycin; cited from earlier work
human UGT enzymes = system: human UGT enzymes; design: method as in PMID 28065859; settings: in vitro studies; cited from earlier work
[5] = design: method as in PMID 27561659; settings: following oral administration of SOR; cited from earlier work
[6] = with metformin; cited from earlier work
[7] = Autosampler for 6 h, nominal 15 ng/mL
[8] = Autosampler for 6 h, nominal 800 ng/mL
[9] = Autosampler for 6 h, nominal 1500 ng/mL
[10] = Freeze–thaw stability for three times, nominal 15 ng/mL
[11] = Freeze–thaw stability for three times, nominal 800 ng/mL
[12] = Freeze–thaw stability for three times, nominal 1500 ng/mL
[13] = Room temperature for 4 h, nominal 15 ng/mL
[14] = Room temperature for 4 h, nominal 800 ng/mL
[15] = Room temperature for 4 h, nominal 1500 ng/mL
[16] = −80 °C for 30 days, nominal 15 ng/mL
[17] = −80 °C for 30 days, nominal 800 ng/mL
[18] = −80 °C for 30 days, nominal 1500 ng/mL
[19] = co-administered with multiple doses of SOR vs control group (DAPA alone)
[20] = male, Sprague-Dawley, rat, in vivo, po, 1 mg/kg, DAPA 1 mg/kg oral with multiple-doses SOR (100 mg/kg, seven days)
[21] = male, Sprague-Dawley, rat, in vivo, po, 1 mg/kg, DAPA 1 mg/kg oral, alone
[22] = Autosampler for 6 h, nominal 10 ng/mL
[23] = Autosampler for 6 h, nominal 3750 ng/mL
[24] = Freeze–thaw stability for three times, nominal 10 ng/mL
[25] = Freeze–thaw stability for three times, nominal 3750 ng/mL
[26] = Room temperature for 4 h, nominal 10 ng/mL
[27] = Room temperature for 4 h, nominal 3750 ng/mL
[28] = −80 °C for 30 days, nominal 10 ng/mL
[29] = −80 °C for 30 days, nominal 3750 ng/mL
[30] = male, Sprague-Dawley, rat, plasma, po, 100 mg/kg, SOR 100 mg/kg oral, alone
[31] = with multiple doses of DAPA vs control group (SOR alone)

CCOc1ccc(Cc2cc([C@@H]3O[C@H](CO)[C@@H](O)[C@H](O)[C@H]3O)ccc2Cl)cc1 [DAPA, Dapagliflozin]
increase of exposure of DAPA ([1]; with mefenamic acid (a strong UGT1A9 inhibitor)): 51%
reduction of exposure of DAPA ([1]; with rifampin (a pleiotropic enzyme inducer)): 22%
share metabolized by CYP450 (CYP450): < 10%
Accuracy (RE%) [2, 7]: −0.4%
Mean ± SD concentration found [2, 7]: 14.93 ± 0.83 ng/mL
Accuracy (RE%) [2, 8]: 3.8%
Mean ± SD concentration found [2, 8]: 830.00 ± 15.05 ng/mL
Accuracy (RE%) [2, 9]: 9.6%
Mean ± SD concentration found [2, 9]: 1643.33 ± 32.66 ng/mL
Accuracy (RE%) [2, 10]: 1.2%
Mean ± SD concentration found [2, 10]: 15.18 ± 0.87 ng/mL
Accuracy (RE%) [2, 11]: −3.8%
Mean ± SD concentration found [2, 11]: 769.83 ± 44.56 ng/mL
Accuracy (RE%) [2, 12]: −7.4%
Mean ± SD concentration found [2, 12]: 1388.33 ± 54.19 ng/mL
Accuracy (RE%) [2, 13]: −0.7%
Mean ± SD concentration found [2, 13]: 14.90 ± 0.49 ng/mL
Accuracy (RE%) [2, 14]: 11.1%
Mean ± SD concentration found [2, 14]: 889.00 ± 15.43 ng/mL
Accuracy (RE%) [2, 15]: 10.2%
Mean ± SD concentration found [2, 15]: 1653.33 ± 21.60 ng/mL
stability in rat plasma ([2]; −80 °C for 30 days): stable
Accuracy (RE%) [2, 16]: 2.9%
Mean ± SD concentration found [2, 16]: 15.43 ± 1.07 ng/mL
Accuracy (RE%) [2, 17]: 2.8%
Mean ± SD concentration found [2, 17]: 822.17 ± 21.66 ng/mL
Accuracy (RE%) [2, 18]: −1.1%
Mean ± SD concentration found [2, 18]: 1483.33 ± 19.66 ng/mL
effect on the expression of Ugt1a7 in the intestines (Ugt1a7 mRNA; DAPA administered to rats for seven consecutive days (1 mg/kg), intestines): no significant effect
inhibition of mRNA expression of Ugt1a7 in the liver (Ugt1a7 mRNA; DAPA administered to rats for seven consecutive days (1 mg/kg), liver): 59.31%
decrease of CLz/F of DAPA [3, 19]: 40%
elevation of MRT0–t of DAPA [3, 19]: 1.48 fold
elevation of MRT0–∞ of DAPA [3, 19]: 1.80 fold
elevation of Tmax of DAPA [3, 19]: 1.43 fold
increase of AUC0–t of DAPA [3, 19]: 1.66 fold
increase of AUC0–∞ of DAPA [3, 19]: 1.80 fold
AUC(0-t) ([3]; male, Sprague-Dawley, rat, in vivo, po, 1 mg/kg, AUC0-t, DAPA 1 mg/kg oral with multiple-doses SOR (100 mg/kg, seven days)): 8570 ± 2860 ng·h/mL
AUC(0-t) ([3]; male, Sprague-Dawley, rat, in vivo, po, 1 mg/kg, AUC0-t, DAPA 1 mg/kg oral, alone): 5160 ± 1030 ng·h/mL
AUC(0-inf) [3, 20]: 9300 ± 4260 ng·h/mL
AUC(0-inf) [3, 21]: 5180 ± 1050 ng·h/mL
CL/F [3, 20]: 2 mL/min/kg
CL/F [3, 21]: 3.33 mL/min/kg
Cmax ([3]; male, Sprague-Dawley, rat, in vivo, po, 1 mg/kg, Cmax, DAPA 1 mg/kg oral with multiple-doses SOR (100 mg/kg, seven days)): 871 ± 167 ng/mL
Cmax ([3]; male, Sprague-Dawley, rat, in vivo, po, 1 mg/kg, Cmax, DAPA 1 mg/kg oral, alone): 846 ± 76.4 ng/mL
MRT last [3, 20]: 9.01 ± 1.22 h
MRT last [3, 21]: 6.1 ± 0.96 h
MRT inf [3, 20]: 11.2 ± 4.86 h
MRT inf [3, 21]: 6.25 ± 1.07 h
Tmax [3, 20]: 49.8 ± 24.6 min
Tmax [3, 21]: 34.8 ± 12 min
Vd/F [3, 20]: 1.12 ± 0.1 L/kg
Vd/F [3, 21]: 1.27 ± 0.19 L/kg
half-life [3, 20]: 477 ± 242 min
half-life [3, 21]: 271 ± 40.2 min
UGT1A9 inhibitor strength (UGT1A9): moderate
UGT1A1 inhibitor strength (UGT1A1): moderate

CNC(=O)c1cc(Oc2ccc(NC(=O)Nc3ccc(Cl)c(C(F)(F)F)c3)cc2)ccn1 [SOR, Sorafenib]
Accuracy (RE%) [2, 22]: 0.9%
Mean ± SD concentration found [2, 22]: 10.09 ± 0.53 ng/mL
Accuracy (RE%) [2, 9]: 2.6%
Mean ± SD concentration found [2, 9]: 1538.33 ± 36.56 ng/mL
Accuracy (RE%) [2, 23]: −0.9%
Mean ± SD concentration found [2, 23]: 3716.67 ± 66.23 ng/mL
Accuracy (RE%) [2, 24]: −1.7%
Mean ± SD concentration found [2, 24]: 9.84 ± 0.34 ng/mL
Accuracy (RE%) [2, 12]: 3.3%
Mean ± SD concentration found [2, 12]: 1550.00 ± 12.65 ng/mL
Accuracy (RE%) [2, 25]: −4.0%
Mean ± SD concentration found [2, 25]: 3601.67 ± 164.00 ng/mL
Accuracy (RE%) [2, 26]: 6.8%
Mean ± SD concentration found [2, 26]: 10.68 ± 0.55 ng/mL
Accuracy (RE%) [2, 15]: −3.4%
Mean ± SD concentration found [2, 15]: 1448.33 ± 18.35 ng/mL
Accuracy (RE%) [2, 27]: −5.8%
Mean ± SD concentration found [2, 27]: 3533.33 ± 66.23 ng/mL
stability in rat plasma ([2]; −80 °C for 30 days): stable
Accuracy (RE%) [2, 28]: 2.0%
Mean ± SD concentration found [2, 28]: 10.20 ± 0.39 ng/mL
Accuracy (RE%) [2, 18]: 2.2%
Mean ± SD concentration found [2, 18]: 1533 ± 40.33 ng/mL
Accuracy (RE%) [2, 29]: −4.2%
Mean ± SD concentration found [2, 29]: 3593.33 ± 142.22 ng/mL
decrease of SOR exposure [4]: 54%
inhibition of human UGT enzymes (human UGT enzymes): one of the most powerful inhibitors
downregulation of mRNA expression of Ugt1a7 in the intestines (Ugt1a7 mRNA; multiple doses of SOR (100 mg/kg, seven days), rat intestines): ~32.09%
downregulation of mRNA expression of Ugt1a7 in the liver (Ugt1a7 mRNA; multiple doses of SOR (100 mg/kg, seven days), rat liver): ~32.50%
AUC(0-t) ([3]; SOR 100 mg/kg oral, alone): 62,701.33 ± 16,697.65 μg/L × h
Cmax ([3]; SOR 100 mg/kg oral, alone): 1547.87 ± 136.94 ng/mL
shape of pharmacokinetic curve of SOR ([3]; after 72 h of SOR gavage): second absorption peak
AUC(0-inf) [3, 30]: 63700 ng·h/mL
CL/F [3, 30]: 28.2 mL/min/kg
MRT last [3, 30]: 47.1 ± 9.48 h
MRT inf [3, 30]: 48.7 ± 10.5 h
Tmax [3, 30]: 450 ± 33 min
Vd/F [3, 30]: 37.4 ± 9.78 L/kg
half-life [3, 30]: 1050 ± 339 min
change of t1/2z, MRT0–t and MRT0–∞ of SOR between the groups ([3]; with multiple doses of DAPA vs SOR alone): no statistically significant changes
decrease of AUC0–t of SOR [3, 31]: 50.5%
decrease of AUC0–∞ of SOR [3, 31]: 46.2%
decrease of Cmax of SOR [3, 31]: 41.6%
time at which maximum plasma concentrations are reached [5]: approximately 3 h
change of exposure to SOR [6]: halved
